How the values were obtained:
[1] = molecular target: T1, Mtb EF-G1 (Elongation factor G1) (Mycobacterium tuberculosis, UniProt P9WNM7); assay: ITC at […] °C; crystal structure of the complex ([…] Å, SeMet SAD); type: binding; design: gene fusA; recombinant Mtb EF-G1 with a C-terminal His tag
[2] = molecular target: T1, Mtb EF-G1 (Elongation factor G1); assay: SPR (Biacore T200), […] steady-state affinity fit; type: binding; design: gene fusA; recombinant Mtb EF-G1 with a C-terminal His tag, immobilized on CM5 chip

T1 sequence (P9WNM7 whole entry): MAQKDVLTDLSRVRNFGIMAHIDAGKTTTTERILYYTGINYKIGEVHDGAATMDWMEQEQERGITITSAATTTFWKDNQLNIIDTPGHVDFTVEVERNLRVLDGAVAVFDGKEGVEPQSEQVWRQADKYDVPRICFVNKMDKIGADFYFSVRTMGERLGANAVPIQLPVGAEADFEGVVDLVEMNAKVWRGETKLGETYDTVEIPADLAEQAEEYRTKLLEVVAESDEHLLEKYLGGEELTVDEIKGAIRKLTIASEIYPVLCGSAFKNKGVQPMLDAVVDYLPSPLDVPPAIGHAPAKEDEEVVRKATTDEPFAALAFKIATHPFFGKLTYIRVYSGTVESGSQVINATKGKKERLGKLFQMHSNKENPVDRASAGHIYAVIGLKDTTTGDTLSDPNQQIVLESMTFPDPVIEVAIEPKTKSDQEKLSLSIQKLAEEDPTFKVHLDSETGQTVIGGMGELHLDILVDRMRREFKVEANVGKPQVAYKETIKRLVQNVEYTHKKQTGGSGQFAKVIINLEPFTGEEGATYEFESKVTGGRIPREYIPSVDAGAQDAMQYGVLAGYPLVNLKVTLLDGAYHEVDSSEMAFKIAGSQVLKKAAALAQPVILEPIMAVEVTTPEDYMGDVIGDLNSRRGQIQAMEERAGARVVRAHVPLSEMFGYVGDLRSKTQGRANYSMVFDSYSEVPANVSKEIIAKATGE

Row | SMILES | Kd [1] [µM] | Kd [2] [µM]
1 | Nc1nc2c(ncn2[C@@H]2O[C@H](COP(=O)(O)OP(=O)(O)O)[C@@H](O)[C@H]2O)c(=O)[nH]1 [GDP] | 11.5 ± 0.3 | 
2 | CC(=O)O[C@H]1C[C@@]2(C)[C@@H](C[C@@H](O)[C@H]3[C@@]4(C)CC[C@@H](O)[C@@H](C)[C@@H]4CC[C@@]32C)/C1=C(\CCC=C(C)C)C(=O)O [FA, Fusidic acid] |  | 3.54

— publication PMC8446442, “Crystal Structure of Mycobacterium tuberculosis Elongation Factor G1” (Frontiers in Molecular Biosciences, 2021)
